Reference: patent US8383375B2 (Posco, priority 2004, dated 2013)

T1: Ss gluconate dehydratase (Saccharolobus solfataricus, UniProt Q97U27)
T1 sequence (Q97U27 1-395): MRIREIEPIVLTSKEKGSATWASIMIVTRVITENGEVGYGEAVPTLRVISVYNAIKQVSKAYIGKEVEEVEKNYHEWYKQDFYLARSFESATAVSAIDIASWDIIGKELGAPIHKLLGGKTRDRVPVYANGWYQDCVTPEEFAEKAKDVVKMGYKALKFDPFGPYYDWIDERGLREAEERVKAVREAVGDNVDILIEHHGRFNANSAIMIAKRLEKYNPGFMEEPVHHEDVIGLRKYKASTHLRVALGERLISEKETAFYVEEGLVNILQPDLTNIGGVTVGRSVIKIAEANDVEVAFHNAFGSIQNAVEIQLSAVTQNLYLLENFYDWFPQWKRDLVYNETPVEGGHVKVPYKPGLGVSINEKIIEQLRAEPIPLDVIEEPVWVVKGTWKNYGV

B1: gluconate dehydratase: thermostable gluconate dehydratase purified from Sulfolobus solfataricus P2, SEQ ID NO:2, octamer (protein, listed as Sulfolobus solfataricus)
chain: T1 sequence (Q97U27 1-395)
modifications: octamer

Key:
[1] = target: T1, Ss gluconate dehydratase; test: Substrate specificities of Ss gluconate dehydratase (semicarbazide method); assay type: biochemical, Sulfolobus solfataricus; parameters: made in house; host or cells: Sulfolobus solfataricus cells (native source, not recombinant); details: for Reaction on substrate / Relative activity (%): 10 mM aldonic acid, 1 mM CoCl2, 50 mM Tri-HCl buffer pH 7.0, 30 min, 78 C; for Relative activity (%): relative to D-gluconate
Protocol: (§1) The semicarbazide method was performed as follows: an enzyme reaction of a total volume a 400 μl was incubated at 78° C. in 50 mM Tris-HCl buffer, pH 7.0, with 10 mM gluconate and an enzyme solution. After 30 min, the enzyme reaction was stopped by the addition of 100 μl 2.0 M HCl. To this solution, 300 μl of semicarbazide solution (1.0% (w/v) semicarbazide hydrochloride and 1.5% (w/v) sodium acetate dissolved in distilled water) was added and incubated at 30° C. for 15 min. The final reaction mixture was diluted with 500 μl distilled water and then measured at 250 nm. The absorbance coefficient of the semicarbazone formation toward 2-keto-3-deoxy gluconate (KDG) was taken to be 0.571×10^3 M^−1 cm^−1.
(§2) For analysis of substrate specificities of gluconate dehydrates, a 10 mM solution of each aldonic acid containing carbon chains ranging from C4 to C7 were incubated together with 40 μg/mL of purified protein. […] All experiments were performed in three plicate.

[2] = target: T1, Ss gluconate dehydratase
Protocol: as §1, §2
Biochemical and kinetic parameters for the enzyme were determined using the assay method described above under standard conditions.
Values for Vmax and Km were determined from Lineweaver bulk plots. The rate dependence on substrate concentration followed Michaelis-Meten kinetics.

[3] = Temperature profile of enzyme activity; assay type: biochemical
Protocol: The temperature profile for enzyme activity was determined between 40 and 100° C.

[4] = assay type: physicochemical
Protocol: Enzyme thermostability was determined at 80, 90, and 100° C. by incubating enzyme solution (50 μg/ml) in 50 mM Tri-HCl (pH 7.2). At an appropriate time, samples were taken and completely cooled on ice and then measured for residual activities under standard conditions. The thermostability of purified gluconate dehydrates was measured at 80, 90, and 100° C.

Molecule | Reaction on substrate [1] | Relative activity (%) [1] | other results
O=C(O)C(O)CO [D, L-glycerate] | No reaction on the following substrates: L-arabonate, D-xylonate, D-galacturonate, D-glucitol, D-mannonate, and D, L-glycerate. |  | 
O=C(O)[C@@H](O)[C@H](O)[C@H](O)CO [D-Arabonate] |  | 0.7% | 
O=C(O)[C@H](O)[C@@H](O)[C@@H](O)[C@H](O)CO [D-Galactonate] |  | 2.8% | 
OC[C@@H](O)[C@@H](O)[C@H](O)[C@@H](O)CO [D-glucitol] | No reaction on the following substrates: L-arabonate, D-xylonate, D-galacturonate, D-glucitol, D-mannonate, and D, L-glycerate. |  | 
O=C(O)[C@H](O)[C@@H](O)[C@@H](O)CO [L-arabonate] | No reaction on the following substrates: L-arabonate, D-xylonate, D-galacturonate, D-glucitol, D-mannonate, and D, L-glycerate. |  | 
O=C(O)[C@H](O)[C@@H](O)[C@H](O)CO [D-xylonate] | No reaction on the following substrates: L-arabonate, D-xylonate, D-galacturonate, D-glucitol, D-mannonate, and D, L-glycerate. |  | 
L-isovalerate [D, L-isovalerate] |  | 0.25% | 
O=C(O)[C@@H](O)[C@@H](O)[C@H](O)[C@H](O)CO [D-mannonate] | No reaction on the following substrates: L-arabonate, D-xylonate, D-galacturonate, D-glucitol, D-mannonate, and D, L-glycerate. |  | 
O=C(O)[C@H](O)[C@@H](O)[C@H](O)[C@H](O)CO [D-Gluconate] |  | 100.0% | Km ([2]; D-gluconate 0.1 to 40 mM as substrate, Lineweaver-Burk plots): 16.7 mM; turnover number (kcat) ([2]; D-gluconate as substrate): 333 s⁻¹; Vm ([2]; D-gluconate as substrate, Lineweaver-Burk plots): 34.5 units/mg; conversion ([1]; 10 mM substrate, 40 μg/mL purified protein, standard condition): 100%
D-Galactoheptonate |  | 1.6% | 
O=C[C@H](O)[C@@H](O)[C@@H](O)[C@H](O)C(=O)O [D-galacturonate] | No reaction on the following substrates: L-arabonate, D-xylonate, D-galacturonate, D-glucitol, D-mannonate, and D, L-glycerate. |  | 
B1 |  |  | Enzyme activity below 60° C. [3]: not detectable; enzyme activity after incubation at 90° C. ([4]; 90° C., 2 hour incubation, 50 μg/ml enzyme in 50 mM Tri-HCl pH 7.2): below 50%; thermostability at 80° C. ([4]; pH 7.2): very stable over 2 hours
